How the values were obtained:
Rat Adjuvant Arthritis = assay: Action Against Rat Adjuvant Arthritis (paw swelling suppression); assay type: in vivo, rat (male Lewis); details: 3.13 mg/kg once daily for 14 days, suspension in 0.5% methyl cellulose; left hind paw volume at day 14; N=6; **: p < 0.05 vs control (Dunnett's test)
[1] = Stability Against Metabolism by Liver Microsome; assay type: in vitro ADME; details: dog liver microsome, NADPH-producing system, phosphate buffer pH 7.4, 37° C.; n=2, mean
Description: Stability Against Metabolism by Liver Microsome:
A dog liver microsome was prepared by a standard method. In a phosphate buffer (pH 7.4), a test substance, a liver microsome and NADPH-producing system [0.5 mM, β-NADP (NADP: nicotinamide adenine dinucleotide phosphate), 1 mM magnesium chloride, 5 mM glucose-6-phosphate, 150units/ml glucose-6-phosphate dehydrogenase (each as final concentration in reaction system)] were mixed and incubated at 37° C. The concentration of the test substance after the discontinuation of the reaction was determined by high pressure liquid chromatography to obtain % residue (n=2, mean).

COc1ccc(-c2c(Cl)c(CN3C(=O)CCC3=O)nc3sc4c(c23)CCNC4)cc1 [Example 1, 3-chloro-5,6,7,8-tetrahydro-4-(4-methoxyphenyl)-2-(succinimidomethyl)thieno[2,3-b:5,4-c']dipyridine]
Swelling suppression rate (%) (Rat Adjuvant Arthritis): 94% | Residue (%) [1]: 90.5%

O=C1CCC(=O)N1Cc1nc2sc3c(c2c(-c2ccc(O)cc2)c1Cl)CCNC3 [Example 15, 3-chloro-4-(4-hydroxyphenyl)-5,6,7,8-tetrahydro-2-(succinimidomethyl)thieno[2,3-b:5,4-c']dipyridine]
Residue (%) [1]: 96.3%

COc1cc(-c2c(Cl)c(CN3C(=O)CCC3=O)nc3sc4c(c23)CCN(C(C)=O)C4)ccc1O [Example 22, 7-acetyl-3-chloro-5,6,7,8-tetrahydro-4-(4-hydroxy-3-methoxyphenyl)-2-(succinimidomethyl)thieno[2,3-b:5,4-c']dipyridine]
Swelling suppression rate (%) (Rat Adjuvant Arthritis): 75%

COc1ccc(-c2c(Cl)c(CN3C(=O)CCC3=O)nc3sc4c(c23)CCNC4)cc1OC [Example 2, 3-chloro-4-(3,4-dimethoxyphenyl)-5,6,7,8-tetrahydro-2-(succinimidomethyl)thieno[2,3-b:5,4-c']dipyridine]
Swelling suppression rate (%) (Rat Adjuvant Arthritis): 92% | Residue (%) [1]: 87.8%

COc1ccc(-c2c(Cl)c(CN3C(=O)CCC3=O)nc3sc4c(c23)CCN(C(C)=O)C4)cc1OC [Example 18, 7-acetyl-3-chloro-4-(3,4-dimethoxyphenyl)-5,6,7,8-tetrahydro-2-(succinimidomethyl)thieno[2,3-b:5,4-c']dipyridine]
Swelling suppression rate (%) (Rat Adjuvant Arthritis): 92%

CCOc1ccc(-c2c(Cl)c(CN3C(=O)CCC3=O)nc3sc4c(c23)CCNC4)cc1 [Example 11, 3-chloro-4-(4-ethoxyphenyl)-5,6,7,8-tetrahydro-2-(succinimidomethyl)thieno[2,3-b:5,4-c']dipyridine]
Swelling suppression rate (%) (Rat Adjuvant Arthritis): 98% | Residue (%) [1]: 94.1%

COc1ccc(-c2c(Br)c(CN3C(=O)CCC3=O)nc3sc4c(c23)CCNC4)cc1 [Example 4, 3-bromo-5,6,7,8-tetrahydro-4-(4-methoxyphenyl)-2-(succinimidomethyl)thieno[2,3-b:5,4-c']dipyridine]
Swelling suppression rate (%) (Rat Adjuvant Arthritis): 85%

— patent publication US6214838A, “Thienodipyridine derivatives, production and use thereof” (Takeda Chemical Industries, Ltd., priority 1998, dated 2001)
